According to patent US20170037028A1 (BAYER PHARMA AKTIENGESELLSCHAFT, priority 2013, published 2017):

Biological target: T1, GLUT1 (Homo sapiens, UniProt P11166)
T1 sequence (P11166 1-492): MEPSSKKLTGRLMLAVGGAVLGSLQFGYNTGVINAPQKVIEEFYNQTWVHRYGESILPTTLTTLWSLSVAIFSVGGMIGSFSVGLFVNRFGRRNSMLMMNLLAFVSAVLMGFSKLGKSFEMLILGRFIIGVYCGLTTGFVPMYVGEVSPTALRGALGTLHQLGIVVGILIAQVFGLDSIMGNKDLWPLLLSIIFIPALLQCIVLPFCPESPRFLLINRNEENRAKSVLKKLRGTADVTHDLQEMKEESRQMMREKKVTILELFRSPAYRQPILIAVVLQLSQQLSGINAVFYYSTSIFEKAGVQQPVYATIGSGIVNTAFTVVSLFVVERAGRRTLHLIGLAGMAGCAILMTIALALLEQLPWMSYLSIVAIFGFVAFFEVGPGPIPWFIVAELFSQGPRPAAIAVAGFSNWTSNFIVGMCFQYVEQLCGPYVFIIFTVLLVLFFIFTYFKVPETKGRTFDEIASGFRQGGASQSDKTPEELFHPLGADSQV
Test: Indirect measurement of GLUT1 activity by quantification of intracellular ATP levels (glucose induced ATP increase)
Type: cell-based
Set-up: endogenous in cells; host or cells: DLD1 or CHO-K1
Settings: DLD1 cells; 0.1 mM glucose, 1 μM Rotenone, 15 min; CellTiter-Glo ATP readout; IC50 values standardized to cytochalasin B IC50 values; read-out: IC50 regarding glucose induced ATP increase (GLUT1 inhibition)
Outline: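 DLD1 or CHO-K1 cells were starved overnight in glucose-free medium with 1% FCS, then combined with an oxidative phosphorylation inhibitor. GLUT1 activity was read as glucose-induced ATP increase, GLUT2 as fructose-induced. Intracellular ATP was quantified by CellTiter-Glo luminescence.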

Row | SMILES | IC50
1 | Cc1ccc2nc(C(N)=O)cc(C(=O)Nc3c(C(F)(F)F)nn(Cc4ccc(C#N)cc4)c3C)c2c1 [Example 366, N^4-[1-(4-cyanobenzyl)-5-methyl-3-(trifluoromethyl)-1H-pyrazol-4-yl]-6-methylquinoline-2,4-dicarboxamide] | 7 nM

Same assay, conditions: read-out: IC50 regarding glucose induced ATP increase (GLUT1 inhibition)

Row | IC50 | SMILES
2 | 2.3 nM | Cc1nn(Cc2ccc(C#N)cn2)c(C)c1NC(=O)c1cc(C(F)(F)F)nc2ccc(Br)cc12 [Example 353, 6-bromo-N-{1-[(5-cyanopyridin-2-yl)methyl]-3,5-dimethyl-1H-pyrazol-4-yl}-2-(trifluoromethyl)quinoline-4-carboxamide]
3 | 3.6 nM | Cc1nn(Cc2ccc(C#N)cn2)c(C)c1NC(=O)c1cc(C(N)=O)nc2cc(F)c(F)cc12 [Example 354, N^4-{1-[(5-cyanopyridin-2-yl)methyl]-3,5-dimethyl-1H-pyrazol-4-yl}-6,7-difluoroquinoline-2,4-dicarboxamide]
4 | 3.9 nM | Cc1nn(Cc2ccc(C#N)cn2)c(C)c1NC(=O)c1cc(C(N)=O)nc2ccccc12 [Example 355, N^4-{1-[(5-cyanopyridin-2-yl)methyl]-3,5-dimethyl-1H-pyrazol-4-yl}quinoline-2,4-dicarboxamide]
5 | 9.3 nM | Cc1nn(Cc2ccc(C#N)cn2)c(C)c1NC(=O)c1cc(C(N)=O)nc2cc(F)ccc12 [Example 356, N^4-{1-[(5-cyanopyridin-2-yl)methyl]-3,5-dimethyl-1H-pyrazol-4-yl}-7-fluoroquinoline-2,4-dicarboxamide]
6 | 28.8 nM | COc1cc(C(=O)Nc2c(C)nn(Cc3ccc(C#N)cn3)c2C)c2ccccc2n1 [Example 357, N-{1-[(5-cyanopyridin-2-yl)methyl]-3,5-dimethyl-1H-pyrazol-4-yl}-2-methoxyquinoline-4-carboxamide]
7 | 1.2 nM | Cc1c(NC(=O)c2cc(C(N)=O)nc3ccc(Br)cc23)c(C(F)(F)F)nn1Cc1ccc(C#N)cn1 [Example 358, 6-bromo-N^4-{1-[(5-cyanopyridin-2-yl)methyl]-5-methyl-3-(trifluoromethyl)-1H-pyrazol-4-yl}quinoline-2,4-dicarboxamide]
8 | 1.3 nM | Cc1c(NC(=O)c2cc(C(N)=O)nc3cc(F)c(Cl)cc23)c(C(F)(F)F)nn1Cc1ccc(C#N)cn1 [Example 359, 6-chloro-N^4-{1-[(5-cyanopyridin-2-yl)methyl]-5-methyl-3-(trifluoromethyl)-1H-pyrazol-4-yl}-7-fluoroquinoline-2,4-dicarboxamide]
9 | 2 nM | Cc1c(NC(=O)c2cc(C(N)=O)nc3cc(F)ccc23)c(C(F)(F)F)nn1Cc1ccc(C#N)cn1 [Example 360, N^4-{1-[(5-cyanopyridin-2-yl)methyl]-5-methyl-3-(trifluoromethyl)-1H-pyrazol-4-yl}-7-fluoroquinoline-2,4-dicarboxamide]
10 | 4.4 nM | Cc1c(NC(=O)c2cc(C(N)=O)nc3ccccc23)c(C(F)(F)F)nn1Cc1ccc(C#N)cn1 [Example 361, N^4-{1-[(5-cyanopyridin-2-yl)methyl]-5-methyl-3-(trifluoromethyl)-1H-pyrazol-4-yl}quinoline-2,4-dicarboxamide]
11 | 5.5 nM | Cc1c(NC(=O)c2cc(C(F)(F)F)nc3ccc(Br)cc23)c(C(F)(F)F)nn1Cc1ccc(C#N)cn1 [Example 362, 6-bromo-N-{1-[(5-cyanopyridin-2-yl)methyl]-5-methyl-3-(trifluoromethyl)-1H-pyrazol-4-yl}-2-(trifluoromethyl)quinoline-4-carboxamide]
12 | 6 nM | Cc1c(NC(=O)c2cc(C(N)=O)nc3cccc(F)c23)c(C(F)(F)F)nn1Cc1ccc(C#N)cn1 [Example 363, N^4-{1-[(5-cyanopyridin-2-yl)methyl]-5-methyl-3-(trifluoromethyl)-1H-pyrazol-4-yl}-5-fluoroquinoline-2,4-dicarboxamide]
13 | 6.6 nM | Cc1c(NC(=O)c2cc(C(N)=O)nc3cc(F)c(F)cc23)c(C(F)(F)F)nn1Cc1ccc(C#N)cn1 [Example 364, N^4-{1-[(5-cyanopyridin-2-yl)methyl]-5-methyl-3-(trifluoromethyl)-1H-pyrazol-4-yl}-6,7-difluoroquinoline-2,4-dicarboxamide]
14 | 26.6 nM | COc1cc(C(=O)Nc2c(C(F)(F)F)nn(Cc3ccc(C#N)cn3)c2C)c2ccccc2n1 [Example 365, N-{1-[(5-cyanopyridin-2-yl)methyl]-5-methyl-3-(trifluoromethyl)-1H-pyrazol-4-yl}-2-methoxyquinoline-4-carboxamide]
15 | 2.3 nM | COC(=O)c1ccc(Cn2nc(C(F)(F)F)c(NC(=O)c3cc(C(N)=O)nc4cc(F)ccc34)c2C)cc1 [Example 367, methyl 4-{[4-{[(2-carbamoyl-7-fluoroquinolin-4-yl)carbonyl]amino}-5-methyl-3-(trifluoromethyl)-1H-pyrazol-1-yl]methyl}benzoate]
16 | 418 nM | Cc1c(NC(=O)c2cc(C(N)=O)nc3cc(F)ccc23)c(C(F)(F)F)nn1Cc1ccc(C(=O)O)cc1 [Example 368, 4-{[4-{[(2-carbamoyl-7-fluoroquinolin-4-yl)carbonyl]amino}-5-methyl-3-(trifluoromethyl)-1H-pyrazol-1-yl]methyl}benzoic acid]
17 | 12.4 nM | Cc1c(NC(=O)c2cc(C(N)=O)nc3cc(F)ccc23)c(C(F)(F)F)nn1Cc1ccc(C(N)=O)cc1 [Example 369, N^4-[1-(4-carbamoylbenzyl)-5-methyl-3-(trifluoromethyl)-1H-pyrazol-4-yl]-7-fluoroquinoline-2,4-dicarboxamide]
18 | 12.8 nM | CNC(=O)c1ccc(Cn2nc(C(F)(F)F)c(NC(=O)c3cc(C(N)=O)nc4cc(F)ccc34)c2C)cc1 [Example 370, 7-fluoro-N^4-{5-methyl-1-[4-(methylcarbamoyl)benzyl]-3-(trifluoromethyl)-1H-pyrazol-4-yl}quinoline-2,4-dicarboxamide]
19 | 243 nM | Cc1c(NC(=O)c2cc(C(N)=O)nc3cc(F)ccc23)c(C(F)(F)F)nn1Cc1ccc(C(=O)N(C)C)cc1 [Example 371, N^4-{1-[4-(dimethylcarbamoyl)benzyl]-5-methyl-3-(trifluoromethyl)-H-pyrazol-4-yl}-7-fluoroquinoline-2,4-dicarboxamide]
20 | 20 nM | Cc1c(NC(=O)c2cc(C(N)=O)nc3cc(F)ccc23)c(C(F)(F)F)nn1Cc1ccc(C(=O)N2CCC2)cc1 [Example 372, N^4-{1-[4-(azetidin-1-ylcarbonyl)benzyl]-5-methyl-3-(trifluoromethyl)-1H-pyrazol-4-yl}-7-fluoroquinoline-2,4-dicarboxamide]
21 | 17.5 nM | COCCNC(=O)c1ccc(Cn2nc(C(F)(F)F)c(NC(=O)c3cc(C(N)=O)nc4cc(F)ccc34)c2C)cc1 [Example 373, 7-fluoro-N^4-[1-{4-[(2-methoxyethyl)carbamoyl]benzyl}-5-methyl-3-(trifluoromethyl)-1H-pyrazol-4-yl]quinoline-2,4-dicarboxamide]
22 | 895 nM | Cc1c(NC(=O)c2cc(C(N)=O)nc3cc(F)ccc23)c(C(F)(F)F)nn1Cc1ccc(C(=O)NCCN(C)C)cc1 [Example 374, N^4-[1-(4-{[2-(dimethylamino)ethyl]carbamoyl}benzyl)-5-methyl-3-(trifluoromethyl)-1H-pyrazol-4-yl]-7-fluoroquinoline-2,4-dicarboxamide]
23 | 123 nM | Cc1c(NC(=O)c2cc(C(N)=O)nc3cc(F)ccc23)c(C(F)(F)F)nn1Cc1ccc(C(=O)NCCO)cc1 [Example 375, 7-fluoro-N^4-[1-{4-[(2-hydroxyethyl)carbamoyl]benzyl}-5-methyl-3-(trifluoromethyl)-1H-pyrazol-4-yl]quinoline-2,4-dicarboxamide]
